Consider 2 molecules from PMC9149975, “The diaryl-imidazopyridazine anti-plasmodial compound, MMV652103, exhibits anti-breast cancer activity” (EXCLI Journal, 2022).

Each structure is given as a SMILES string.

One test concerns MCF7 tumors. As to the kind of experiment: Chick embryo CAM xenograft: tumor weight and metastasis. Format: in vivo. The settings on record: 25 μM, every 48 h E10-E16, weighed E18. The protocol: All studies and procedures were conducted with prior approval of the Animal Ethics Committee of the University of Cape Town (FHS AEC REF NO:016/025) in accordance with the South African National Standard (SANS 10386:008) for the Care and Use of Animals for Scientific Purposes (SABS, 2015[71]), and guidelines from the Department of Health (2015[21]). Fertilized White Leghorn eggs were incubated at 37.5 °C with 50 % relative humidity for 9 days. At stage E9, the chorioallantoic membrane (CAM) was dropped by drilling a small hole through the eggshell into the air sac and a 1 cm^2 window was cut in the eggshell above the CAM. Cultured MCF7 cells were detached with trypsin, washed with complete medium and suspended in PBS. An inoculum of MCF7 cells was grafted onto the CAM of each E9 egg (21 eggs were used for each condition) and at E10, tumors were detectable. MCF7 tumors were treated every 48 h (E10, E12, E14, E16) by dropping 100 μl of vehicle (0.25 % DMSO in PBS), a reference compound (Paclitaxel), or MMV652103, onto the tumour. At E18 the upper portion of the CAM was removed, transferred to PBS and the tumors cut away from normal CAM tissue and weighed. A one-way ANOVA analysis with post-tests was done. In parallel, a 1 cm^2 portion of the lower CAM was collected to evaluate the number of metastatic cells. The relative amount of metastasis was calculated as follows: Tumor cells were grafted onto the upper chorioallantoic membrane (CAM) and during metastasis the cells invade the epithelium and basement membrane of the upper CAM and move through connective tissue into the vasculature into the lower CAM. The cells in the lower CAM are then harvested and genomic DNA is extracted and analyzed by qPCR with specific primers for Alu sequences which are only found in higher primates i.e. it allows for the distinction between human tumor cells and the host chick cells. Statistical analysis was directly performed on data from the Bio-Rad CFX Manager 3.1 software.

A further test relates to MCF7 cells. As to the kind of experiment: GSH-Glo Glutathione assay. Format: cell-based, human. Conditions: MCF7, 24 h; MMV652103 ½ IC50 and IC50, doxorubicin IC50 (9.84 nM). The procedure:
The increase in ROS levels results in a decrease in the levels of antioxidants. To confirm the presence of intracellular ROS, the levels of the antioxidant, glutathione (GSH), was measured using the GSH-Glo™ Glutathione assay kit (V6911, Promega, Wisconsin, USA), according to the manufacturer's instructions. Briefly, cells (2500-4500 cells per well) were seeded in opaque 96 well plates. Cells were treated for 24 h with either vehicle or MMV652103. Thereafter, the cell culture medium was removed and 100 μl of 1X GSH-Glo™ Reagent (prepared using Luciferin-NT substrate and Glutathione S-Transferase each diluted 1:100 in GSH-Glo™ Reaction Buffer) was added to each well. The plate was then mixed briefly on a shaker and incubated for 10 min at RT. Thereafter, 100 μl reconstituted Luciferin Detection Reagent was added to each well. The plate was then incubated for 15 min RT in order to stabilize the luminescence signal. The plate was read using the GloMax® Explorer Multimode plate reader (Promega, Wisconsin, USA).

With `CC(=O)O[C@H]1C(=O)[C@@]2(C)[C@H]([C@H](OC(=O)c3ccccc3)[C@]3(O)C[C@H](OC(=O)[C@H](O)[C@@H](NC(=O)c4ccccc4)c4ccccc4)C(C)=C1C3(C)C)[C@]1(OC(C)=O)CO[C@@H]1C[C@@H]2O` [Paclitaxel, reference compound], the tumor weight reduction in the test with MCF7 tumors turned out to be 28.22%.

Regarding `COc1cccc2c1C(=O)c1c(O)c3c(c(O)c1C2=O)C[C@@](O)(C(=O)CO)C[C@@H]3O[C@H]1C[C@H](N)[C@H](O)[C@H](C)O1` [Doxorubicin, reference compound], the “levels of GSH” value in the test on MCF7 cells is on record as “significant decrease”.
